Data as given in ChEMBL document CHEMBL1201862, “PubChem BioAssay data set” (2004).
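Compound exposure: 48 hours, 5 concentrations, 96-well plates. GI50 is the concentration that inhibits growth by half.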 Calls of active or inactive are those of the source. No stated cut-off is given here; in the data, active = GI50 up to about 1.1 µM and inactive = higher.

How the values were obtained:
Assay in all cases: growth of human tumour cells (NCI), 48 h
[1] = test system: 786-0
[2] = test system: ACHN
[3] = test system: TK-10
[4] = test system: U-251
[5] = test system: LXFL 529
[6] = test system: SNB-75
[7] = test system: SK-OV-3
[8] = test system: NCI-H23
[9] = test system: UACC-62
[10] = test system: M14
[11] = test system: SF-539
[12] = test system: OVCAR-3
[13] = test system: SNB-78
[14] = test system: OVCAR-5
[15] = test system: RPMI-8226
[16] = test system: HT-29
[17] = test system: DMS-273
[18] = test system: Malme-3M
[19] = test system: LOX IMVI
[20] = test system: SN12C
[21] = test system: SF-295
[22] = test system: SW-620
[23] = test system: SR
[24] = test system: KM12
[25] = test system: KM-20L2
[26] = test system: SK-MEL-28
[27] = test system: HOP-62
[28] = test system: OVCAR-8
[29] = test system: SNB-19
[30] = test system: UO-31
[31] = test system: NCI-H460
[32] = test system: SK-MEL-2
[33] = test system: HOP-92
[34] = test system: HL-60
[35] = test system: K562
[36] = test system: DLD-1
[37] = test system: IGROV-1
[38] = test system: NCI-H226
[39] = test system: XF498
[40] = test system: CAKI-1
[41] = test system: NCI-H522
[42] = test system: SF-268
[43] = test system: OVCAR-4
[44] = test system: HCC 2998
[45] = test system: A549
[46] = test system: COLO 205
[47] = test system: HCT-15
[48] = test system: HCT-116
[49] = test system: MOLT-4
[50] = test system: UACC-257
[51] = test system: RXF 393
[52] = test system: SK-MEL-5
[53] = test system: EKVX
[54] = test system: DMS-114
[55] = test system: CCRF-CEM
[56] = test system: A498
[57] = test system: M19-MEL
[58] = test system: HOP-18

## CC(=O)NC(ON1C(=O)COc2ccccc21)C(Cl)(Cl)Cl (centres undefined)
[1]
  GI50: > 100 µM (inactive)
[2]
  GI50: > 100 µM (inactive)
[3]
  GI50: > 100 µM (inactive)
[4]
  GI50: > 100 µM (inactive)
[5]
  GI50: > 100 µM (inactive)
[6]
  GI50: > 100 µM (inactive)
[7]
  GI50: > 100 µM (inactive)
[8]
  GI50: > 100 µM (inactive)
[9]
  GI50: > 100 µM (inactive)
[10]
  GI50: > 100 µM (inactive)
[11]
  GI50: > 100 µM (inactive)
[12]
  GI50: > 100 µM (inactive)
[13]
  GI50: > 100 µM (inactive)
[14]
  GI50: > 100 µM (inactive)
[15]
  GI50: > 100 µM (inactive)
[16]
  GI50: > 100 µM (inactive)
[17]
  GI50: > 100 µM (inactive)
[18]
  GI50: > 100 µM (inactive)
[19]
  GI50: > 100 µM (inactive)
[20]
  GI50: > 100 µM (inactive)
[21]
  GI50: > 100 µM (inactive)
[22]
  GI50: > 100 µM (inactive)
[23]
  GI50: > 100 µM (inactive)
[24]
  GI50: > 100 µM (inactive)
[25]
  GI50: > 100 µM (inactive)
[26]
  GI50: > 100 µM (inactive)
[27]
  GI50: > 100 µM (inactive)
[28]
  GI50: > 100 µM (inactive)
[29]
  GI50: > 100 µM (inactive)
[30]
  GI50: > 100 µM (inactive)
[31]
  GI50: > 100 µM (inactive)
[32]
  GI50: > 100 µM (inactive)
[33]
  GI50: > 100 µM (inactive)
[34]
  GI50: > 100 µM (inactive)
[35]
  GI50: > 100 µM (inactive)
[36]
  GI50: > 100 µM (inactive)
[37]
  GI50: > 100 µM (inactive)
[38]
  GI50: 33.4 µM (inactive)
[39]
  GI50: > 100 µM (inactive)
[40]
  GI50: > 100 µM (inactive)
[41]
  GI50: > 100 µM (inactive)
[42]
  GI50: > 100 µM (inactive)
[43]
  GI50: > 100 µM (inactive)
[44]
  GI50: > 100 µM (inactive)
[45]
  GI50: > 100 µM (inactive)
[46]
  GI50: > 100 µM (inactive)
[47]
  GI50: > 100 µM
[48]
  GI50: > 100 µM (inactive)
[49]
  GI50: > 100 µM (inactive)
[50]
  GI50: > 100 µM (inactive)

## Cc1[nH]c2cc([N+](=O)[O-])ccc2c1[N+](=O)[O-]
[51]
  GI50: 13.6 µM (inactive)
[1]
  GI50: 29 µM (inactive)
[2]
  GI50: 15.5 µM (inactive)
[3]
  GI50: 29.7 µM (inactive)
[4]
  GI50: 19.9 µM (inactive)
[5]
  GI50: 17.2 µM (inactive)
[6]
  GI50: 19 µM (inactive)
[52]
  GI50: 14 µM (inactive)
[8]
  GI50: 17.7 µM (inactive)
[10]
  GI50: 19.5 µM (inactive)
[11]
  GI50: 18.8 µM (inactive)
[12]
  GI50: 25.1 µM (inactive)
[14]
  GI50: 27.2 µM (inactive)
[15]
  GI50: 10.5 µM (inactive)
[16]
  GI50: 27.9 µM (inactive)
[18]
  GI50: 13.9 µM (inactive)
[19]
  GI50: 24.6 µM (inactive)
[20]
  GI50: 25.6 µM (inactive)
[21]
  GI50: 17.3 µM (inactive)
[22]
  GI50: 25.2 µM (inactive)
[24]
  GI50: 21.3 µM (inactive)
[53]
  GI50: 11.7 µM (inactive)
[25]
  GI50: 27.4 µM (inactive)
[54]
  GI50: 9.93 µM (inactive)
[26]
  GI50: 21 µM (inactive)
[27]
  GI50: 7.28 µM (inactive)
[28]
  GI50: 25.8 µM (inactive)
[55]
  GI50: 16.8 µM (inactive)
[29]
  GI50: 18.7 µM (inactive)
[30]
  GI50: 7.96 µM (inactive)
[31]
  GI50: 20.6 µM (inactive)
[32]
  GI50: 14.1 µM (inactive)
[33]
  GI50: 3.9 µM (inactive)
[34]
  GI50: 20.6 µM (inactive)
[35]
  GI50: 22.2 µM (inactive)
[36]
  GI50: 22.6 µM (inactive)
[37]
  GI50: 26.2 µM (inactive)
[38]
  GI50: 14.2 µM (inactive)
[39]
  GI50: 20.7 µM (inactive)
[40]
  GI50: 19 µM (inactive)
[41]
  GI50: 13.3 µM (inactive)
[42]
  GI50: 22.1 µM (inactive)
[43]
  GI50: 14.1 µM (inactive)
[44]
  GI50: 15 µM (inactive)
[45]
  GI50: 17.1 µM (inactive)
[46]
  GI50: 13.7 µM (inactive)
[56]
  GI50: 17.3 µM (inactive)
[49]
  GI50: 19.5 µM (inactive)
[50]
  GI50: 17 µM (inactive)

## O=C(Nc1nc2ccc([N+](=O)[O-])cc2s1)C(=O)C(C(=O)c1ccccc1F)C1OC(=O)c2ccccc21 (centres undefined)
[2]
  GI50: 59.4 µM (inactive)
[3]
  GI50: 87.1 µM (inactive)
[4]
  GI50: 16.9 µM (inactive)
[5]
  GI50: 34 µM (inactive)
[6]
  GI50: 30.9 µM (inactive)
[52]
  GI50: 71.9 µM (inactive)
[7]
  GI50: 29 µM (inactive)
[8]
  GI50: 67.1 µM (inactive)
[9]
  GI50: 29.6 µM (inactive)
[10]
  GI50: 56.2 µM (inactive)
[11]
  GI50: 21.3 µM (inactive)
[13]
  GI50: 25.1 µM (inactive)
[14]
  GI50: 71 µM (inactive)
[15]
  GI50: 16.4 µM (inactive)
[16]
  GI50: 40 µM (inactive)
[17]
  GI50: 33.7 µM (inactive)
[19]
  GI50: 27 µM (inactive)
[20]
  GI50: 40.5 µM (inactive)
[21]
  GI50: 56 µM (inactive)
[22]
  GI50: 41.3 µM (inactive)
[23]
  GI50: 16.8 µM (inactive)
[24]
  GI50: 55.1 µM (inactive)
[53]
  GI50: 22.1 µM (inactive)
[25]
  GI50: 49.4 µM (inactive)
[54]
  GI50: 25.1 µM (inactive)
[26]
  GI50: 32.1 µM (inactive)
[27]
  GI50: 62.2 µM (inactive)
[28]
  GI50: 47.9 µM (inactive)
[55]
  GI50: 17.3 µM (inactive)
[29]
  GI50: 28.6 µM (inactive)
[30]
  GI50: 38 µM (inactive)
[31]
  GI50: 40.5 µM (inactive)
[32]
  GI50: 20.4 µM (inactive)
[33]
  GI50: > 100 µM (inactive)
[34]
  GI50: 20.3 µM (inactive)
[35]
  GI50: 29.9 µM (inactive)
[36]
  GI50: 41 µM (inactive)
[37]
  GI50: 75.5 µM (inactive)
[57]
  GI50: 31 µM (inactive)
[39]
  GI50: 48.3 µM (inactive)
[40]
  GI50: 41.4 µM (inactive)
[41]
  GI50: 17.4 µM (inactive)
[42]
  GI50: 34.2 µM (inactive)
[43]
  GI50: 46.8 µM (inactive)
[44]
  GI50: 24.9 µM (inactive)
[45]
  GI50: 57 µM (inactive)
[46]
  GI50: 21.3 µM (inactive)
[47]
  GI50: 31.2 µM
[56]
  GI50: 42.8 µM (inactive)
[48]
  GI50: 37.1 µM (inactive)
[49]
  GI50: 17.7 µM (inactive)
[50]
  GI50: 92.5 µM (inactive)

## COc1cc(C2c3cc4c(cc3[C@@H](NCCN3CCOCC3)C3COC(=O)[C@H]23)OCO4)cc(OC)c1O (some centres undefined)
[51]
  GI50: 2.3 µM (inactive)
[1]
  GI50: 1.19 µM (inactive)
[3]
  GI50: 7.85 µM (inactive)
[58]
  GI50: 2.81 µM (inactive)
[4]
  GI50: 0.906 µM (active)
[5]
  GI50: 11.3 µM (inactive)
[9]
  GI50: 1.21 µM (inactive)
[10]
  GI50: 2.57 µM (inactive)
[11]
  GI50: 0.836 µM (active)
[12]
  GI50: 8.02 µM (inactive)
[13]
  GI50: 16.5 µM (inactive)
[16]
  GI50: 4.65 µM (inactive)
[17]
  GI50: 0.437 µM (active)
[18]
  GI50: 2.31 µM (inactive)
[19]
  GI50: 0.962 µM (active)
[21]
  GI50: 1.35 µM (inactive)
[22]
  GI50: 1.23 µM (inactive)
[24]
  GI50: 2.42 µM (inactive)
[53]
  GI50: 14.2 µM (inactive)
[25]
  GI50: 2.96 µM (inactive)
[26]
  GI50: 3.71 µM (inactive)
[27]
  GI50: 0.541 µM (active)
[28]
  GI50: 2.18 µM (inactive)
[29]
  GI50: 2.51 µM (inactive)
[30]
  GI50: 1.77 µM (inactive)
[32]
  GI50: 4.17 µM (inactive)
[33]
  GI50: 1.04 µM (active)
[35]
  GI50: 5.56 µM (inactive)
[36]
  GI50: 6.18 µM (inactive)
[37]
  GI50: 8.11 µM (inactive)
[40]
  GI50: 1.97 µM (inactive)
[41]
  GI50: 2.51 µM (inactive)
[42]
  GI50: 1.56 µM (inactive)
[43]
  GI50: 17.8 µM (inactive)
[44]
  GI50: 1.97 µM (inactive)
[47]
  GI50: 1.65 µM
[48]
  GI50: 3.01 µM (inactive)
[50]
  GI50: 3.23 µM (inactive)
